Molecular target: HPK1 (Homo sapiens (Human), UniProt Q92918)
Assay: HPK1 Kinase Binding Assay
Protocol: A stock solution of 1 mM test compound was prepared in DMSO. The compound plate was prepared by 3-fold and 11-point serial dilutions. 0.1 μL of the compound in DMSO was transferred from the compound plate to the white 384 well polystyrene plates. The assay buffer contained 50 mM HEPES, pH 7.5, 0.01% Tween-20, 5 mM MgCl2, 0.01% BSA, and 5 mM DTT. 5 μl of 4 nM active HPK1 (SignalChem M23-11G) prepared in the buffer was added to the plate. The enzyme concentration given was based on the given stock concentration reported by the vender. 5 μl of 18 nM tracer 222 (ThermoFisher PV6121) and 4 nM LanthaScreen Eu-Anti GST antibody (ThermoFisher PV5595) were added. After one hour incubation at 25° C., the plates were read on a PHERAstar FS plate reader (BMG Labtech). Ki values were determined.

HPK1, sequence (Q92918 1-346): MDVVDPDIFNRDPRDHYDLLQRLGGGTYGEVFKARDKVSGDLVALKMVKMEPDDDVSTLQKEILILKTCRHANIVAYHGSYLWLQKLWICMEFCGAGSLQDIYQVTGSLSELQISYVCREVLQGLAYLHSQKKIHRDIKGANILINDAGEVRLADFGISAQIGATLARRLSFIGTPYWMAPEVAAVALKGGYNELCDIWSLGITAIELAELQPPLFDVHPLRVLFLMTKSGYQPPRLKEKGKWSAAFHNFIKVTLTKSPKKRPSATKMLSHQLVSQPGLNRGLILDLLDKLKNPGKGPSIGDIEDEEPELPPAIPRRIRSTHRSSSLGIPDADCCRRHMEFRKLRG

Structure (SMILES) | Ki
CNCc1cc(F)c(-c2cc3c(-c4cnn(C)c4)n[nH]c3cn2)c(F)c1 [Example 122, 1-(3,5-Difluoro-4-(3-(1-methyl-1H-pyrazol-4-yl)-1H-pyrazolo[3,4-c]pyridin-5-yl)phenyl)-N-methylmethanamine] | ≤ 100 nM
CN1CCN(c2ccc(-c3n[nH]c4cnc(-c5c(F)cccc5CC#N)cc34)cc2)CC1 [Example 194, 2-(3-Fluoro-2-(3-(4-(4-methylpiperazin-1-yl)phenyl)-1H-pyrazolo[3,4-c]pyridin-5-yl)phenyl)acetonitrile] | ≤ 100 nM
COc1cccc(F)c1-c1cc2c(NC(=O)c3ccc(N4CCNCC4)cc3)n[nH]c2cn1 [Example 33, N-(5-(2-Fluoro-6-methoxyphenyl)-1H-pyrazolo[3,4-c]pyridin-3-yl)-4-(piperazin-1-yl)benzamide] | ≤ 100 nM
CNCc1cc(F)c(-c2cc3c(-c4cnc(N5CCC(O)CC5)nc4)n[nH]c3cn2)c(F)c1 [Example 218, 1-(5-(5-(2,6-Difluoro-4-((methylamino)methyl)phenyl)-1H-pyrazolo[3,4-c]pyridin-3-yl)pyrimidin-2-yl)piperidin-4-ol] | ≤ 100 nM
COc1cccc(F)c1-c1cc2c(C(=O)Nc3ccc(N4CCN(C)CC4)cc3)n[nH]c2cn1 [Example 54, 5-(2-Fluoro-6-methoxyphenyl)-N-(4-(4-methylpiperazin-1-yl)phenyl)-1H-pyrazolo[3,4-c]pyridine-3-carboxamide] | ≤ 100 nM
COc1cccc(F)c1-c1cc2c(NC(=O)c3cc(F)cc(F)c3)n[nH]c2cn1 [Example 11, 3,5-Difluoro-N-(5-(2-fluoro-6-methoxyphenyl)-1H-pyrazolo[3,4-c]pyridin-3-yl)benzamide] | ≤ 100 nM
Cn1cc(-c2n[nH]c3cnc(-c4c(F)cc(C5CCCN5)cc4C(F)(F)F)cc23)cn1 (single isomer, unassigned) [Example 227, 5-(2-Fluoro-4-(pyrrolidin-2-yl)-6-(trifluoromethyl)phenyl)-3-(1-methyl-1H-pyrazol-4-yl)-1H-pyrazolo[3,4-c]pyridine] | ≤ 100 nM
Cc1cccc(F)c1-c1cc2c(NC(=O)c3ccc(N4CCN(C)CC4)cc3N)n[nH]c2cn1 [Example 157, 2-Amino-N-(5-(2-fluoro-6-methylphenyl)-1H-pyrazolo[3,4-c]pyridin-3-yl)-4-(4-methylpiperazin-1-yl)benzamide] | ≤ 100 nM
Cc1cccc(F)c1-c1cc2c(NC(=O)c3ccc(N4CCN(C)CC4)cc3)n[nH]c2cn1 [Example 152, N-(5-(2-Fluoro-6-methylphenyl)-1H-pyrazolo[3,4-c]pyridin-3-yl)-4-(4-methylpiperazin-1-yl)benzamide] | ≤ 100 nM
COc1cc(NC(=O)OC2CCN(C)CC2)cc(F)c1-c1cc2c(-c3cnn(C)c3)n[nH]c2cn1 [Example 76, 1-Methylpiperidin-4-yl 3-fluoro-5-methoxy-4-(3-(1-methyl-1H-pyrazol-4-yl)-1H-pyrazolo[3,4-c]pyridin-5-yl)phenylcarbamate] | ≤ 100 nM
CCN1CCN(c2ccc(NC(=O)c3n[nH]c4cnc(-c5c(F)cccc5OC)cc34)cc2)CC1 [Example 56, N-(4-(4-Ethylpiperazin-1-yl)phenyl)-5-(2-fluoro-6-methoxyphenyl)-1H-pyrazolo[3,4-c]pyridine-3-carboxamide] | ≤ 100 nM
CC(C)NCc1cc(F)c(-c2cc3c(-c4cnn(C)c4)n[nH]c3cn2)c(F)c1 [Example 123, N-(3,5-Difluoro-4-(3-(1-methyl-1H-pyrazol-4-yl)-1H-pyrazolo[3,4-c]pyridin-5-yl)benzyl)propan-2-amine] | ≤ 100 nM
CC(C)NCc1cccc(-c2cc3c(-c4cnn(C)c4)n[nH]c3cn2)c1C(F)(F)F [Example 91, N-(3-(3-(1-Methyl-1H-pyrazol-4-yl)-1H-pyrazolo[3,4-c]pyridin-5-yl)-2-(trifluoromethyl)benzyl)propan-2-amine] | ≤ 100 nM
COc1cccc(F)c1-c1cc2c(-n3cnc(C(=O)NC(C)C)c3)n[nH]c2cn1 [Example 104, 1-(5-(2-Fluoro-6-methoxyphenyl)-1H-pyrazolo[3,4-c]pyridin-3-yl)-N-isopropyl-1H-imidazole-4-carboxamide] | ≤ 100 nM
CC(C)NCc1cc(F)c(-c2cc3c(C(=O)Nc4ccc(N5CCN(C)CC5)cc4)n[nH]c3cn2)c(F)c1 [Example 155, 5-(2,6-Difluoro-4-((isopropylamino)methyl)phenyl)-N-(4-(4-methylpiperazin-1-yl)phenyl)-1H-pyrazolo[3,4-c]pyridine-3-carboxamide] | ≤ 100 nM
COC1CN(Cc2cc(F)c(-c3cc4c(NC(=O)c5ccc(N6CCN(C)CC6)cc5)n[nH]c4cn3)c(F)c2)C1 [Example 143, N-(5-(2,6-Difluoro-4-((3-methoxyazetidin-1-yl)methyl)phenyl)-1H-pyrazolo[3,4-c]pyridin-3-yl)-4-(4-methylpiperazin-1-yl)benzamide] | ≤ 100 nM

The next lines start with the values.

Ki | Structure (SMILES)
≤ 100 nM | Cc1cc(CN2CCC(O)C2)cc(F)c1-c1cc2c(-c3cnn(C)c3)n[nH]c2cn1 (stereo not shown) [Example 183, 1-(3-Fluoro-5-methyl-4-(3-(1-methyl-1H-pyrazol-4-yl)-1H-pyrazolo[3,4-c]pyridin-5-yl)benzyl)pyrrolidin-3-ol]
≤ 100 nM | Cn1cc(C(=O)Nc2cc(F)c(-c3cc4c(-c5cnn(C)c5)n[nH]c4cn3)c(F)c2)cn1 [Example 65, N-(3,5-Difluoro-4-(3-(1-methyl-1H-pyrazol-4-yl)-1H-pyrazolo[3,4-c]pyridin-5-yl)phenyl)-1-methyl-1H-pyrazole-4-carboxamide]
≤ 100 nM | COc1cccc(F)c1-c1cc2c(NC(=O)c3cccc(F)c3)n[nH]c2cn1 [Example 6, 3-Fluoro-N-(5-(2-fluoro-6-methoxyphenyl)-1H-pyrazolo[3,4-c]pyridin-3-yl)benzamide]
≤ 100 nM | Cc1cccc(F)c1-c1cc2c(-c3ccc(N4CCN(C)CC4)cc3)n[nH]c2cn1 [Example 49, 5-(2-Fluoro-6-methylphenyl)-3-(4-(4-methylpiperazin-1-yl)phenyl)-1H-pyrazolo[3,4-c]pyridine]
≤ 100 nM | CN1CCN(c2ccc(-c3n[nH]c4cnc(-c5c(F)cc(O)cc5F)cc34)cc2)CC1 [Example 48, 3,5-Difluoro-4-(3-(4-(4-methylpiperazin-1-yl)phenyl)-1H-pyrazolo[3,4-c]pyridin-5-yl)phenol]
≤ 100 nM | Cn1cc(-c2n[nH]c3cnc(-c4c(F)cc5c(c4F)C(O)CC5)cc23)cn1 (stereo not shown) [Example 212, 5,7-Difluoro-6-(3-(1-methyl-1H-pyrazol-4-yl)-1H-pyrazolo[3,4-c]pyridin-5-yl)-2,3-dihydro-1H-inden-1-ol]
≤ 100 nM | CNC(=O)c1ccc(-c2n[nH]c3cnc(-c4c(F)ccc5c4CCCC5NC)cc23)cn1 (stereo not shown) [Example 208, 5-(5-(2-Fluoro-5-(methylamino)-5,6,7,8-tetrahydronaphthalen-1-yl)-1H-pyrazolo[3,4-c]pyridin-3-yl)-N-methylpicolinamide]
≤ 100 nM | Cc1cc(NC(=O)CN(C)C)cc(F)c1-c1cc2c(-c3cnn(C)c3)n[nH]c2cn1 [Example 81, 2-(Dimethylamino)-N-(3-fluoro-5-methyl-4-(3-(1-methyl-1H-pyrazol-4-yl)-1H-pyrazolo[3,4-c]pyridin-5-yl)phenyl)acetamide]
≤ 100 nM | CN1CCN(c2ccc(-c3n[nH]c4cnc(-c5c(F)cccc5CO)cc34)cc2)CC1 [Example 196, (3-Fluoro-2-(3-(4-(4-methylpiperazin-1-yl)phenyl)-1H-pyrazolo[3,4-c]pyridin-5-yl)phenyl)methanol]
